According to patent publication US9874565B2, “Oncogene associated with human cancers and methods of use thereof” (Dana-Farber Cancer Institute, Inc., priority 2013, dated 2018):

System: hMECs transformed with MECP2
Assay: growth inhibition of hMECs transformed with MECP2 compared with isogenic cells transformed by activated RAS
Type: cell-based, human
From the text: Because MECP2 only binds to methylated CpG sequences and hydroxymethylcytosine, and because data have shown that oncogenic activation of MECP2 depends upon its DNA-binding region, […] it is likely that the oncogenic activity of MECP2 is mediated by binding of the protein to methylated CpG sequences of hydroxymethylated cytosine. For this reason, it was investigated whether DNA methylation inhibitors hinder cell growth in a MECP2-dependent manner. DNA methylation inhibitors prevent the formation of both methylated CpG sequences and hydroxymethylated cytosine.
MECP2 is known to be present in a complex with Class I histone deacetylases. […] This led to investigation of whether MECP2-transformed cells were particularly vulnerable to HDAC inhibitors. […] Furthermore, it was shown that combined treatment with the DNA methylation inhibitor 5-azacytdine and the HDAC inhibitor Trichostatin A is synergistic in a hMEC experimental system.

| Structure (SMILES) | susceptibility of MECP2-transformed cells relative to isogenic cells transformed by activated RAS (HDAC inhibitor, MECP2-transformed vs activated RAS-transformed isogenic cells) | sensitivity of hMECs transformed with MECP2 relative to isogenic cells transformed by activated RAS (DNA methylation inhibitors, MECP2-transformed vs activated RAS-transformed isogenic hMECs) |
| --- | --- | --- |
| CC(/C=C/C(=O)NO)=C\[C@@H](C)C(=O)c1ccc(N(C)C)cc1 [Trichostatin A] | an order of magnitude more susceptible | – |
| Nc1ncn([C@@H]2O[C@H](CO)[C@@H](O)[C@H]2O)c(=O)n1 [5-azacytidine] | – | an order of magnitude more sensitive |
